This note sets out measurements from patent US20050244427A1, “Isolation and production of bioactive marine products” (priority 2004, published 2005).

The structures appear in SMILES notation.

This test has as its system Symbiodinium cells isolated from Eunicea fusca. The test can be described thus: Effect of plant growth factors on fuscol production in in vitro cultures of alga cells isolated from Eunicea fusca. In kind it is cell-based. The following applies: One hundred μM added for 48 hours after 24 hours in culture medium; compared with untreated control cells; RP HPLC, detection at 240 nm; FIG. 4. How it is done:
FIG. 4 is a graph showing the induction of fuscol production in Symbiodinium cells isolated from Eunicea fusca with Methyl Jasmonate, Giberellic Acid and Salicyclic Acid.
Live Eunicea fusca was collected from Florida Keys. The tissue was homogenized in a blender using 50:50 DI/Filtered Seawater (FSW). The homogenate was strained into 50 mL Falcon tubes and centrifuged at 160×g for 5 minutes. The supernatant was discarded and the pellet was resuspended in 50:50 DI/FSW. The sample was centrifuged again, followed by three rounds of rinsing and centrifuging until the supernatant was clear. The cell pellet was layered over a Percoll gradient (30% and 70%) and centrifuged at 38×g for 10 minutes. Cells on the 30/70% interface were collected using a plastic pipet and rinsed two times in 50:50 DI/FSW water. Cells were examined by light microscopy to assess cell purity and to count the number of cells. 2.38×10^8 cells (500 μL) were removed from the sample and diluted to 2 mL with tris buffer (20 mM containing 3 mM EDTA, 5 mM MgCl2 and 5 mM β-mercaptoethanol). The sample was incubated with 1μ Ci ^3H-GGPP for 24 hrs at 29° C. and 180 RPM. The cells were centrifuged and the buffer was removed using a syringe and filtered into a scintillation vial. The cells were extracted with methylene chloride and ethyl acetate (8 times) followed by filtration into the scintillation vial containing the buffer. The crude extract was dried and weighed. The dried extract weighed 7.08 mg. The extract was partitioned between MeOH:H2O 9:1 and hexanes. The hexanes layer was dried and weighed. This layer weighed 4.77 mg. Water was added to make MeOH:H2O at a ratio of 1:1 and partitioned with methylene chloride. The CH2Cl2 layer was dried and weighed. This layer weighed 1.67 mg.
Referring to FIG. 4, the effect of growth factors on the production of fuscol in in vitro cultures of alga cells isolated from Eunicea fusca (as described above) was analyzed. […] The cells were then extracted and fuscol concentrations were determined by standard chromatographic methods (RP HPLC, detection at λ 240 nm).

As for `C=C1C[C@]23CC1(O)CC[C@H]2[C@@]12C=C[C@H](O)C(C)(C(=O)O1)[C@H]2[C@@H]3C(=O)O` [giberellic acid], the “production of fuscol (fuscol concentration in extracted cells)” value is recorded as “Significantly more fuscol was produced”.
In the case of `CC/C=C\CC1C(=O)CCC1CC(=O)OC` (stereo not drawn) [methyl jasmonate] it was “Significantly more fuscol was produced”; in that of `O=C(O)c1ccccc1O` [salicyclic acid], “Significantly more fuscol was produced”.
